Test results published in article PMC10535318, “Benzimidazole-Based Schiff Base Hybrid Scaffolds: A Promising Approach to Develop Multi-Target Drugs for Alzheimer’s Disease” (Pharmaceuticals, 2023).
Read-outs that look alike come from different tables or passages of the source.

Tests used:
[1] = molecular target: T1, butyrylcholinesterase (BuChE) (Homo sapiens, UniProt P06276); assay: biochemical
T1 construct: purchased Sigma-Aldrich (Steinheim, Germany)
Experimental: (§1) All chemicals and reagents employed in the study were obtained from Merck or Sigma-Aldrich (St. Louis, MO, USA) (Darmstadt, Germany). Acetylcholinesterase (E.C.3.1.1.7) and butyrylcholinesterase (E.C. 3.1.1.8) were procured from Sigma–Aldrich (Steinheim, Germany). The ^1H NMR and ^13C NMR spectra were recorded using a Bruker FT-NMR spectrometer operating at the digital frequencies of 600 and 150 MHz (Bioscience, Bruker, Billerica, MA, USA). Mass spectra were acquired utilizing a Shimadzu LCMS-IT-TOF system (Kyoto, Japan) employing the electrospray ionization (ESI) technique. The purity of synthesized derivatives was checked through thin-layer chromatography using silica gel 60 F254 (Merck, KGaA, Darmstadt, Germany).
(§2) The study was carried out following the guidelines outlined in our previously published study.

[2] = molecular target: T2, acetylcholinesterase (AChE) (Homo sapiens, UniProt P22303); assay: biochemical
T2 construct: purchased Sigma-Aldrich (Steinheim, Germany)
T2 sequence (P22303 32-614, species assumed): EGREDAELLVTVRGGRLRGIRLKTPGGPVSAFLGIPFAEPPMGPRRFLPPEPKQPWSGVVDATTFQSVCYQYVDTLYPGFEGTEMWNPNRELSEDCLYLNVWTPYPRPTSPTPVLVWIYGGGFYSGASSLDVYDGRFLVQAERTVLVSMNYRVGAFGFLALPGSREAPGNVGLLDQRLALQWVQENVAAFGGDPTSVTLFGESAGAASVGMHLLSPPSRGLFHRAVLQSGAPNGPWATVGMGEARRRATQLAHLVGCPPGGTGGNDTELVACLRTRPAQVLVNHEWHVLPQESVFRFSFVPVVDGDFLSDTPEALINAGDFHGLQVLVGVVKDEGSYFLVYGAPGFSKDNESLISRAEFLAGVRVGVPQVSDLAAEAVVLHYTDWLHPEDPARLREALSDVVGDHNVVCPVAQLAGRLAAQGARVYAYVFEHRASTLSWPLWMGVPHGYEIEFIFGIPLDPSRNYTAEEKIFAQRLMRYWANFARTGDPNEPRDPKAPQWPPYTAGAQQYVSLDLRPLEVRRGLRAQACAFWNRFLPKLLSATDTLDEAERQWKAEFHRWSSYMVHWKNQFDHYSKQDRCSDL
Experimental: as §1, §2

[3] = in vitro, value ± standard error mean, read-out: BuChE Inhibition IC50 ± SEM
[4] = in vitro, value ± standard error mean, read-out: AChE Inhibition IC50 ± SEM

T1 sequence (P06276 29-602): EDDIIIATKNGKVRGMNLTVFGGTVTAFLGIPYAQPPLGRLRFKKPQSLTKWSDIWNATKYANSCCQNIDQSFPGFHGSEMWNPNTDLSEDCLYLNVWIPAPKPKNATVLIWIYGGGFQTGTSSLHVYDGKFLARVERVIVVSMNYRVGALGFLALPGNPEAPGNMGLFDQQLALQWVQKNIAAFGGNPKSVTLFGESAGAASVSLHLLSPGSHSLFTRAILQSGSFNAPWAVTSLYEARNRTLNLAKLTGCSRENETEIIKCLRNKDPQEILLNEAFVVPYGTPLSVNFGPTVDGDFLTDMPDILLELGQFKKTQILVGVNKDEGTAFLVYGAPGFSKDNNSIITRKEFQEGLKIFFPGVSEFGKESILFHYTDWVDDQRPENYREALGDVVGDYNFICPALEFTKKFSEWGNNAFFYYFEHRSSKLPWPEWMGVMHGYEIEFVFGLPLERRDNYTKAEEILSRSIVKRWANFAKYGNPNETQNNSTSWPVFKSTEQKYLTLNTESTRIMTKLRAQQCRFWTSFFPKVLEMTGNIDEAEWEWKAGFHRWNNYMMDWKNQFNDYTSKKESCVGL

In the case of `O=[N+]([O-])c1ccc(/C(CSc2nc3ccccc3[nH]2)=N/C2=CC=C(Nc3ccc([N+](=O)[O-])cc3O)C2)cc1` [Compound 1, (Z)-2-((4-((2-((1H-benzo[d]imidazol-2-yl)thio)-1-(4-nitrophenyl)ethylidene)amino)cyclopenta-1,3-dien-1-yl)amino)-5-nitrophenol], the IC50 [1] is reported as 249 ± 10.9 µM and the IC50 [2] is reported as 214 ± 11.6 µM.
`Cc1cc([N+](=O)[O-])ccc1/C(CSc1nc2ccccc2[nH]1)=N/C1=CC=C(Nc2ccc([N+](=O)[O-])cc2O)C1` [Compound 2, (Z)-2-((4-((2-((1H-benzo[d]imidazol-2-yl)thio)-1-(2-methyl-4-nitrophenyl)ethylidene)amino)cyclopenta-1,3-dien-1-yl)amino)-5-nitrophenol] was tested, and the IC50 [1] was 204 ± 8.2 µM and the IC50 [2] was 199 ± 10.2 µM.
`O=[N+]([O-])c1ccc(NC2=CC=C(/N=C(\CSc3nc4ccccc4[nH]3)c3ccccc3[N+](=O)[O-])C2)c(O)c1` [Compound 3, (Z)-2-((4-((2-((1H-benzo[d]imidazol-2-yl)thio)-1-(2-nitrophenyl)ethylidene)amino)cyclopenta-1,3-dien-1-yl)amino)-5-nitrophenol] was tested, and the IC50 [1] was 131 ± 9.7 µM and the IC50 [2] was 124 ± 10.2 µM.
`Cc1ccc(/C(CSc2nc3ccccc3[nH]2)=N/C2=CC=C(Nc3ccc([N+](=O)[O-])cc3O)C2)cc1` [Compound 4, (Z)-2-((4-((2-((1H-benzo[d]imidazol-2-yl)thio)-1-(p-tolyl)ethylidene)amino)cyclopenta-1,3-dien-1-yl)amino)-5-nitrophenol] gave an IC50 [1, 3] of 285 ± 8.2 µM and an IC50 [2, 4] of 274 ± 7.6 µM.
Work on `O=[N+]([O-])c1ccc(NC2=CC=C(/N=C(\CSc3nc4ccccc4[nH]3)c3ccc(Cl)c(Cl)c3)C2)c(O)c1` [Compound 5, (Z)-2-((4-((2-((1H-benzo[d]imidazol-2-yl)thio)-1-(3,4-dichlorophenyl)ethylidene)amino)cyclopenta-1,3-dien-1-yl)amino)-5-nitrophenol] yielded an IC50 [1, 3] of 179 ± 6.7 µM and an IC50 [2, 4] of 169 ± 7.7 µM.
In the case of `O=[N+]([O-])c1ccc(NC2=CC=C(/N=C(\CSc3nc4ccccc4[nH]3)c3ccc([N+](=O)[O-])cc3Br)C2)c(O)c1` [Compound 6, (Z)-2-((4-((2-((1H-benzo[d]imidazol-2-yl)thio)-1-(2-bromo-4-nitrophenyl)ethylidene)amino)cyclopenta-1,3-dien-1-yl)amino)-5-nitrophenol], the IC50 [1] is reported as 274 ± 13.8 µM and the IC50 [2] is reported as 226 ± 10.1 µM.
`O=[N+]([O-])c1ccc(NC2=CC=C(/N=C(\CSc3nc4ccccc4[nH]3)c3ccccc3Br)C2)c(O)c1` [Compound 7, (Z)-2-((4-((2-((1H-benzo[d]imidazol-2-yl)thio)-1-(2-bromophenyl)ethylidene)amino)cyclopenta-1,3-dien-1-yl)amino)-5-nitrophenol] showed an IC50 [1, 3] of 326 ± 13.1 µM and an IC50 [2, 4] of 314 ± 12.8 µM.
Compound `Cc1ccccc1/C(CSc1nc2ccccc2[nH]1)=N/C1=CC=C(Nc2ccc([N+](=O)[O-])cc2O)C1` [Compound 8, (Z)-2-((4-((2-((1H-benzo[d]imidazol-2-yl)thio)-1-(o-tolyl)ethylidene)amino)cyclopenta-1,3-dien-1-yl)amino)-5-nitrophenol] has an IC50 [1, 3] of 304 ± 13.8 µM and an IC50 [2, 4] of 291 ± 12.6 µM.
Work on `COc1ccc(/C(CSc2nc3ccccc3[nH]2)=N/C2=CC=C(Nc3cccc([N+](=O)[O-])c3)C2)cc1O` [Compound 9, (Z)-5-(2-((1H-benzo[d]imidazol-2-yl)thio)-1-((4-((3-nitrophenyl)amino)cyclopenta-1,3-dien-1-yl)imino)ethyl)-2-methoxyphenol] yielded an IC50 [1, 3] of 181 ± 8.5 µM and an IC50 [2, 4] of 174 ± 6.76 µM.
`O=[N+]([O-])c1ccc(NC2=CC=C(/N=C(\CSc3nc4ccccc4[nH]3)c3ccccc3)C2)c(O)c1` [Compound 10, (Z)-2-((4-((2-((1H-benzo[d]imidazol-2-yl)thio)-1-phenylethylidene)amino)cyclopenta-1,3-dien-1-yl)amino)-5-nitrophenol] showed an IC50 [1, 3] of 376 ± 12.8 µM and an IC50 [2, 4] of 343 ± 10.6 µM.
`O=[N+]([O-])c1ccc(/C(CSc2nc3ccccc3[nH]2)=N/C2=CC=C(Nc3cccc([N+](=O)[O-])c3)C2)cc1` [Compound 11, (Z)-N-(4-((2-((1H-benzo[d]imidazol-2-yl)thio)-1-(4-nitrophenyl)ethylidene)amino)cyclopenta-1,3-dien-1-yl)-3-nitroaniline] was tested, and the IC50 [1] was 274 ± 9.1 µM and the IC50 [2] was 268 ± 11.7 µM.
In the case of `Cc1ccc(/C(CSc2nc3ccccc3[nH]2)=N/C2=CC=C(Nc3cccc([N+](=O)[O-])c3)C2)cc1` [Compound 12, (Z)-N-(4-((2-((1H-benzo[d]imidazol-2-yl)thio)-1-(p-tolyl)ethylidene)amino)cyclopenta-1,3-dien-1-yl)-3-nitroaniline], the IC50 [1, 3] is reported as 318 ± 9.8 µM and the IC50 [2, 4] is reported as 308 ± 8.8 µM.
Work on `Cc1cccc(/C(CSc2nc3ccccc3[nH]2)=N/C2=CC=C(Nc3cccc([N+](=O)[O-])c3)C2)c1` [Compound 13, (Z)-N-(4-((2-((1H-benzo[d]imidazol-2-yl)thio)-1-(m-tolyl)ethylidene)amino)cyclopenta-1,3-dien-1-yl)-3-nitroaniline] yielded an IC50 [1, 3] of 354 ± 12.7 µM and an IC50 [2, 4] of 321 ± 13.5 µM.
With `Cc1ccccc1/C(CSc1nc2ccccc2[nH]1)=N/C1=CC=C(Nc2cccc([N+](=O)[O-])c2)C1` [Compound 14, (Z)-N-(4-((2-((1H-benzo[d]imidazol-2-yl)thio)-1-(o-tolyl)ethylidene)amino)cyclopenta-1,3-dien-1-yl)-3-nitroaniline] the IC50 [1, 3] was 311 ± 12.3 µM and the IC50 [2, 4] was 289 ± 11.5 µM.
`Cc1cc([N+](=O)[O-])ccc1/C(CSc1nc2ccccc2[nH]1)=N/C1=CC=C(Nc2cccc([N+](=O)[O-])c2)C1` [Compound 15, (Z)-N-(4-((2-((1H-benzo[d]imidazol-2-yl)thio)-1-(2-methyl-4-nitrophenyl)ethylidene)amino)cyclopenta-1,3-dien-1-yl)-3-nitroaniline] was tested, and the IC50 [1] was 221 ± 8.7 µM and the IC50 [2] was 217 ± 8.28 µM.
In the case of `O=[N+]([O-])c1cccc(NC2=CC=C(/N=C(\CSc3nc4ccccc4[nH]3)c3ccccc3Br)C2)c1` [Compound 17, (Z)-N-(4-((2-((1H-benzo[d]imidazol-2-yl)thio)-1-(2-bromophenyl)ethylidene)amino)cyclopenta-1,3-dien-1-yl)-3-nitroaniline], the IC50 [1, 3] is reported as 269 ± 9.6 µM and the IC50 [2, 4] is reported as 234 ± 10.1 µM.
In the case of `O=[N+]([O-])c1cccc(NC2=CC=C(/N=C(\CSc3nc4ccccc4[nH]3)c3ccc([N+](=O)[O-])cc3Br)C2)c1` [Compound 18, (Z)-N-(4-((2-((1H-benzo[d]imidazol-2-yl)thio)-1-(2-bromo-4-nitrophenyl)ethylidene)amino)cyclopenta-1,3-dien-1-yl)-3-nitroaniline], the IC50 [1] is reported as 247 ± 9.1 µM and the IC50 [2] is reported as 214 ± 8.2 µM.
